Reference: US20100120050A1, “Biomarkers For Assessing Altherosclerotic Potential” (ENTELOS, INC., priority 2008, published 2010)
Like-named read-outs stand apart in the source and are kept apart here.

System: hepatic genes (liver)
Method: While the molecular target for PPARγ is not in the liver, it represents the effects of changes in metabolism of the whole animal, which impact liver lipoprotein production and clearance.
Male Sprague-Dawley (Crl:CD® (SD)(IGS)BR) rats (Charles River Laboratories, Portage, Mich.), weight matched, 7 to 8 weeks of age, were housed individually in hanging, stainless steel, wire-bottom cages in a temperature (66-77° F.), light (12-hour dark/light cycle) and humidity (30-70%) controlled room. Water and rodent diet were available ad libitum throughout the 5 day acclimatization period and during the 5 day treatment period. Housing and treatment of the animals were in accordance with regulations outlined in the USDA Animal Welfare Act (9 CFR Parts 1, 2 and 3).
Rats (three per group) were dosed daily at either a low or high dose. […] Animals were necropsied on days 0.25, 1, 3, and 5. Up to 13 tissues (e.g., liver, kidney, heart, bone marrow, blood, spleen, brain, intestine, glandular and nonglandular stomach, lung, muscle, and gonads) were collected for histopathological evaluation and microarray expression profiling on the Affymetrix Rat Whole Genome RG230 v2 platform. In addition, a clinical pathology panel consisting of 37 clinical chemistry and hematology parameters was generated from blood samples collected on days 3 and 5.
Gene expression profiling, data processing and quality control were performed using protocols recommended by. Briefly, liver samples from 3 rats were chosen at random from each treatment and control group for each timepoint for expression profile analysis on the Affymetrix Rat Whole Genome RG230 v2 microarray (Affymetrix, Santa Clara, Calif.). Log transformed signal data for all probes were array-wise normalized using the Affymetrix MASS algorithm. Expression log ratios of base 10 (log(10) ratios) were computed as the difference between the logs of the averaged normalized experimental signals and the averaged normalized time-matched vehicle control signals for each gene.

CCc1ccc(CCOc2ccc(CC3SC(=O)NC3=O)cc2)nc1 (stereo not drawn) [pioglitazone]
Average Log (10) Ratio: L-3-hydroxyacyl-Coenzyme A dehydrogenase, short chain (rat liver, probe AA891362, Rn.92789, oral gavage, experiments of Table 3): 0.375 | Average Log (10) Ratio: acetyl-coenzyme A acetyltransferase 1 (rat liver, probe AA899304, Rn.4054, oral gavage, experiments of Table 3): 0.171 | Average Log (10) Ratio: transferrin (rat liver, probe AA945548, Rn.91296, oral gavage, experiments of Table 3): −0.222 | Average Log (10) Ratio: sterol regulatory element binding factor 1 (rat liver, probe AF286470, Rn.801, oral gavage, experiments of Table 3): −0.118 | Average Log (10) Ratio: CCAAT/enhancer binding protein (C/EBP), delta (rat liver, probe AI176576, Rn.6975, oral gavage, experiments of Table 3): −0.035 | Average Log (10) Ratio: fatty acid synthase (rat liver, probe AI179334, Rn.9486, oral gavage, experiments of Table 3): −0.411 | Average Log (10) Ratio: peroxisome proliferator activated receptor alpha (rat liver, probe AI385341, Rn.9753, oral gavage, experiments of Table 3): 0.247 | Average Log (10) Ratio: perilipin (rat liver, probe AI406700, Rn.9737, oral gavage, experiments of Table 3): −0.187 | Average Log (10) Ratio: monoglyceride lipase (rat liver, probe AI713204, Rn.40396, oral gavage, experiments of Table 3): −0.118 | Average Log (10) Ratio: phosphatidylinositol 3-kinase, C2 domain containing, gamma polypeptide (rat liver, probe AW526669, Rn.169550, oral gavage, experiments of Table 3): −0.240 | Average Log (10) Ratio: monoglyceride lipase (rat liver, probe AY081195, Rn.40396, oral gavage, experiments of Table 3): −0.131 | Average Log (10) Ratio: mitogen-activated protein kinase 8 (rat liver, probe BE105603, Rn.4090, oral gavage, experiments of Table 3): 0.332 | Average Log (10) Ratio: ELOVL family member 6, elongation of long chain fatty acids (yeast) (rat liver, probe BF396857, Rn.46942, oral gavage, experiments of Table 3): −0.225 | Average Log (10) Ratio: sterol regulatory element binding factor 1 (rat liver, probe BF398848, Rn.801, oral gavage, experiments of Table 3): −0.092 | Average Log (10) Ratio: RIKEN cDNA 1500016L11 (DBSS) (rat liver, probe BF407188, Rn.15135, oral gavage, experiments of Table 3): −0.149 | Average Log (10) Ratio: monoglyceride lipase (rat liver, probe BG372713, Rn.40396, oral gavage, experiments of Table 3): −0.110 | Average Log (10) Ratio: Pyruvate carboxylase (rat liver, probe BG376902, Rn.11094, oral gavage, experiments of Table 3): 0.300 | Average Log (10) Ratio: acetyl CoA transferase-like (DBSS) (rat liver, probe BG377636, Rn.98393, oral gavage, experiments of Table 3): 0.071 | Average Log (10) Ratio: phospholipid transfer protein (DBSS) (rat liver, probe BI278687, Rn.117434, oral gavage, experiments of Table 3): −0.045 | Average Log (10) Ratio: guanine nucleotide binding protein, alpha stimulating, olfactory type (rat liver, probe BI281656, Rn.39132, oral gavage, experiments of Table 3): −0.386 | Average Log (10) Ratio: acetyl-Coenzyme A acyltransferase 2 (mitochondrial 3-oxoacyl-Coenzyme A thiolase) (rat liver, probe BI282488, Rn.3786, oral gavage, experiments of Table 3): 0.046 | Average Log (10) Ratio: glycerol-3-phosphate acyltransferase, mitochondrial (rat liver, probe BI288209, Rn.44456, oral gavage, experiments of Table 3): −0.319 | Average Log (10) Ratio: elongation of very long chain fatty acids (FEN1/Elo2, SUR4/Elo3, yeast)-like 3 (DBSS) (rat liver, probe BI292438, Rn.79322, oral gavage, experiments of Table 3): 0.334 | Average Log (10) Ratio: NCI_CGAP_Emb2 cDNA clone IMAGE: 4176354 (rat liver, probe BI850137, Rn.83595, oral gavage, experiments of Table 3): 0.315 | Average Log (10) Ratio: pyruvate dehydrogenase kinase, isoenzyme 3 (mapped) (rat liver, probe BM389330, Rn.18101, oral gavage, experiments of Table 3): −0.142 | Average Log (10) Ratio: 3-hydroxy-3-methylglutaryl-Coenzyme A reductase (rat liver, probe BM390399, Rn.9437, oral gavage, experiments of Table 3): −0.018 | Average Log (10) Ratio: sulfotransferase family 2A, dehydroepiandrosterone (DHEA)-preferring, member 1 (rat liver, probe D14989, Rn.91378, oral gavage, experiments of Table 3): 0.112 | Average Log (10) Ratio: apolipoprotein E (rat liver, probe J02582, Rn.32351, oral gavage, experiments of Table 3): 0.410 | Average Log (10) Ratio: stearoyl-Coenzyme A desaturase 1 (rat liver, probe J02585, Rn.1023, oral gavage, experiments of Table 3): 0.056 | Average Log (10) Ratio: apolipoprotein B (rat liver, probe M14952, Rn.33815, oral gavage, experiments of Table 3): −0.303 | Average Log (10) Ratio: NCI_CGAP_Emb2 cDNA clone IMAGE: 4176354 (rat liver, probe M15114, Rn.83595, oral gavage, experiments of Table 3): 0.052 | Average Log (10) Ratio: malic enzyme 1 (rat liver, probe M30596, Rn.161920, oral gavage, experiments of Table 3): −0.083 | Average Log (10) Ratio: glucokinase (rat liver, probe NM_012565, Rn.10447, oral gavage, experiments of Table 3): −0.220 | Average Log (10) Ratio: serine (or cysteine) peptidase inhibitor, clade E, member 1 (rat liver, probe NM_012620, Rn.29367, oral gavage, experiments of Table 3): 0.049 | Average Log (10) Ratio: adrenergic receptor, beta 1 (rat liver, probe NM_012701, Rn.87064, oral gavage, experiments of Table 3): 0.205 | Average Log (10) Ratio: hexokinase 2 (rat liver, probe NM_012735, Rn.91375, oral gavage, experiments of Table 3): 0.300 | Average Log (10) Ratio: guanylate cyclase 1, soluble, beta 3 (rat liver, probe NM_012769, Rn.87228, oral gavage, experiments of Table 3): −0.120 | Average Log (10) Ratio: guanylate cyclase 1, soluble, beta 2 (rat liver, probe NM_012770, Rn.10933, oral gavage, experiments of Table 3): −0.120 | Average Log (10) Ratio: mitogen activated protein kinase 10 (rat liver, probe NM_012806, Rn.9911, oral gavage, experiments of Table 3): 0.229 | Average Log (10) Ratio: carnitine palmitoyltransferase 2 (rat liver, probe NM_012930, Rn.11389, oral gavage, experiments of Table 3): 0.030 | Average Log (10) Ratio: 3-hydroxy-3-methylglutaryl-Coenzyme A reductase (rat liver, probe NM_013134, Rn.9437, oral gavage, experiments of Table 3): 0.086 | Average Log (10) Ratio: transforming growth factor, beta 3 (rat liver, probe NM_013174, Rn.7018, oral gavage, experiments of Table 3): −0.086 | Average Log (10) Ratio: carnitine palmitoyltransferase 1b, muscle (rat liver, probe NM_013200, Rn.6028, oral gavage, experiments of Table 3): 0.125 | Average Log (10) Ratio: solute carrier family 10, member 2 (rat liver, probe NM_017222, Rn.85891, oral gavage, experiments of Table 3): −0.206 | Average Log (10) Ratio: mitogen-activated protein kinase 9 (rat liver, probe NM_017322, Rn.9910, oral gavage, experiments of Table 3): −0.209 | Average Log (10) Ratio: acyl-Coenzyme A oxidase 1, palmitoyl (rat liver, probe NM_017340, Rn.31796, oral gavage, experiments of Table 3): 0.165 | Average Log (10) Ratio: transforming growth factor, beta 1 (rat liver, probe NM_021578, Rn.40136, oral gavage, experiments of Table 3): −0.047 | Average Log (10) Ratio: protein kinase, AMP-activated, beta 2 non-catalytic subunit (rat liver, probe NM_022627, Rn.15423, oral gavage, experiments of Table 3): −0.432 | Average Log (10) Ratio: transforming growth factor, beta 2 (rat liver, probe NM_031131, Rn.24539, oral gavage, experiments of Table 3): −0.378 | Average Log (10) Ratio: carnitine palmitoyltransferase 1a, liver (rat liver, probe NM_031559, Rn.2856, oral gavage, experiments of Table 3): 0.341 | Average Log (10) Ratio: protein kinase, AMP-activated, beta 1 non-catalytic subunit (rat liver, probe NM_031976, Rn.3619, oral gavage, experiments of Table 3): −0.188 | Average Log (10) Ratio: ATP-binding cassette, sub-family D (ALD), member 1 (DBSS) (rat liver, probe NM_033352, Rn.177278, oral gavage, experiments of Table 3): 0.292 | Average Log (10) Ratio: insulin-like growth factor binding protein, acid labile subunit (rat liver, probe NM_053329, Rn.164865, oral gavage, experiments of Table 3): −0.263 | Average Log (10) Ratio: pyruvate dehydrogenase kinase, isoenzyme 4 (rat liver, probe NM_053551, Rn.30070, oral gavage, experiments of Table 3): −0.148 | Average Log (10) Ratio: phosphatidylinositol 3-kinase, C2 domain containing, gamma polypeptide (rat liver, probe NM_053923, Rn.169550, oral gavage, experiments of Table 3): −0.055 | Average Log (10) Ratio: pyruvate dehydrogenase E1 alpha 2 (rat liver, probe NM_053994, Rn.11126, oral gavage, experiments of Table 3): −0.171 | Average Log (10) Ratio: nuclear receptor subfamily 0, group B, member 2 (rat liver, probe NM_057133, Rn.10712, oral gavage, experiments of Table 3): 0.034 | Average Log (10) Ratio: hydroxyacyl-Coenzyme A dehydrogenase/3-ketoacyl-Coenzyme A thiolase/enoyl-Coenzyme A hydratase (trifunctional protein), beta subunit (rat liver, probe NM_133618, Rn.11253, oral gavage, experiments of Table 3): 0.182 | Average Log (10) Ratio: ELOVL family member 5, elongation of long chain fatty acids (yeast) (rat liver, probe NM_134382, Rn.4243, oral gavage, experiments of Table 3): −0.191 | Average Log (10) Ratio: Glycerol-3-phosphate dehydrate dehydrogenase (mtGPDH) mRNA, 3′UTR (rat liver, probe U08027, Rn.89705, oral gavage, experiments of Table 3): 0.026 | Average Log (10) Ratio: glycerol-3-phosphate acyltransferase, mitochondrial (rat liver, probe U36771, Rn.44456, oral gavage, experiments of Table 3): −0.239 | Average Log (10) Ratio: Cytochrome P450, family 2, subfamily b, polypeptide 2 (rat, in vivo, po): 0.275 | Average Log (10) Ratio: cytochrome P450, family 2, subfamily b, polypeptide 13 (rat, in vivo, po): −0.015 | Average Log (10) Ratio: cytochrome P450, family 3, subfamily a, polypeptide 13 (rat, in vivo, po): −0.242 | Average Log (10) Ratio: cytochrome P450, family 7, subfamily a, polypeptide 1 (rat, in vivo, po): 0.320 | Average Log (10) Ratio: cytochrome P450, family 8, subfamily b, polypeptide 1 (rat, in vivo, po): 0.351
